Data set [1] in a line: Half-life in human plasma. It counts as ADME, cell-free.
The nature of data set [2]: Half-life of the parent prodrug in porcine esterase solution. It counts as ADME, Sus scrofa. The following applies: pig.
The nature of data set [3]: Half-life of the parent prodrug in plasma. It counts as ADME, cell-free. The following applies: human.

By half-life is commonly meant the time in which the quantity being followed falls by half. Turning to `COc1ccc(NC(=O)CC(C)(C)c2c(OC)cc(OC)cc2OC(C)=O)cc1`, in data set [1], the half-life turned out to be 52 min.

For the molecule `COc1ccc(NC(=O)CC(C)(C)c2c(C)cc(C)cc2OC(C)=O)cc1`, the T1/2 is given as 11.9 min in data set [2] and 53.7 min in data set [3].
